Measurements as given in patent US20020058049A1, “Stable ophthalmic preparation” (priority 2000, published 2002).

Assays:
[1] = Long-term stability of unoprostone in polypropylene bottles at 25° C., 40% relative humidity; format: physicochemical; settings: PP bottle
Experimental: (§1) 0.15 wt % unoprostone isopropyl ester (a typical prostaglandin analogue) solution in an isotonic solution containing mannitol and edetate disodium is prepared. The solution also contains 0.015 wt % benzalkonium chloride as a preservative. The solution is placed in a polypropylene bottle and a polyethylene bottle, which bottles have 7.5 ml void volume, and 5 ml of the solution is placed in each bottle. The bottles have air-tight caps. The polypropylene bottle is molded from REXENE PP23M2 polypropylene and the polyethylene bottle is produced from ALATHON 2025 […] polyethylene (LDPE), which is available from DuPont. The bottles are placed in controlled environment at 40° C. and ambient humidity, and the concentration of unoprostone is periodically measured using HPLC.
The unoprostone solution is placed in the polypropylene bottles, as described in Example 1, and placed in storage at 25° C. with 40% relative humidity. The stability over time of unoprostone in the polypropylene bottles is measured.

[2] = Percent unoprostone isopropyl absorbed by bottle (PP vs LDPE) at three storage temperatures; format: physicochemical
Experimental: as §1
Example 1 is repeated except that three different temperatures are used to store the samples. As put forth in Table 3, the percent unoprostone isopropyl absorbed by polypropylene is much lower than LDPE. This is particularly significant in that the lower absorption at higher temperatures enables the preparation of the present invention to meet current FDA stability requirements without refrigeration.

CCCCCCCC(=O)CC[C@@H]1[C@@H](C/C=C\CCCC(=O)OC(C)C)[C@@H](O)C[C@H]1O [Unoprostone, unoprostone isopropyl ester]
% Unoprostone Isopropyl (Active) ([1]; 3 mo.): 101.3%
% Unoprostone Isopropyl (Active) ([1]; 6 mo.): 101.3%
% Unoprostone Isopropyl (Active) ([1]; 9 mo.): 101.3%
% Unoprostone Isopropyl (Active) ([1]; 18 mo.): 101.3%
% Unoprostone Isopropyl (Active) ([1]; Initial): 101.3%
degradation in concentration over time ([1]; over eighteen months): no measurable degradation
% Unoprostone Absorbed ([2]; LDPE bottle, 12 mo. at 5° C.): 3.11%
% Unoprostone Absorbed ([2]; LDPE bottle, 12 mo. at 25° C.): 4.76%
% Unoprostone Absorbed ([2]; LDPE bottle, 12 mo. at 30° C.): 5.70%
% Unoprostone Absorbed ([2]; PP bottle, 12 mo. at 5° C.): 0.00%
% Unoprostone Absorbed ([2]; PP bottle, 12 mo. at 25° C.): 0.98%
% Unoprostone Absorbed ([2]; PP bottle, 12 mo. at 30° C.): 1.98%
